Test results published in US7130746B2, “Computer systems and computer programs for determining protein activity levels using gene expression profiles” (priority 1998, dated 2006).

Key:
wild type yeast cells = conditions: 10 micrograms/ml doxycycline (Gari et al., 1997); cited from earlier work
[1] = system: yeast Saccharomyces cerevisiae; experiment: Yeast growth under methotrexate titration; format: cell-based; conditions: 100 μM methotrexate titration
yeast gene YOL031C = experiment: Transcript array gene expression response to methotrexate, Hill function fit; format: cell-based, Saccharomyces cerevisiae
Source text: FIG. 2 illustrates an example of perturbation response profiles measured at discrete protein activity levels of dihydrofolate reductase. Specifically, the figure illustrates mRNA expression levels of 30 genes of the yeast Saccharomyces cerevisiae that, of the 6000 genes in the genome of this yeast, had the largest expression changes in response to six different titrations of the drug methotrexate, which is known to act primarily by disrupting the activity of dihydrofolate reductase. These gene expression level measurements were made with gene transcript arrays, as described in Section 5.5. The perturbation response profiles in FIG. 2 can be interpolated according to the methods disclosed in Section 5.4, below, to provide perturbation response profiles for any activity level of dihydrofolate reductase, i.e., perturbation response curves.
In model fitting, the perturbation responses are interpolated by approximating each by a single parameterized function. An exemplary model-fitting function appropriate for approximating transcriptional state data is the Hill function, which has adjustable parameters a, u0 and n.
[formula] the adjustable parameters are selected independently for each cellular constituent of the perturbation response. Preferably, the adjustable parameters are selected so that for each cellular constituent the sum of the squares of the distances H(pl) from Rk(pl) is minimized. This preferable parameter adjustment method is known in the art as a least squares fit of H( ) to Rk( ). Other possible model functions are based on polynomial fitting, for example by various known classes of polynomials.
Model fitting with a Hill function is illustrated with respect to FIGS. 2 and 4. As discussed, FIG. 2 illustrates an example of perturbation by methotrexate and identified by measurement. This figure illustrates the RNA expression levels of 30 genes of the yeast S. cerevisiae that, of the approximately 6000 genes in the genome of this organism, had the largest expression changes in response to six different exposure levels of methotrexate. […]

Row | SMILES | effect on growth rate (wild type yeast cells) | growth defect [1] | Hill function parameter n (yeast gene YOL031C; least squares fit of YOL031C expression response) | Hill function parameter a (yeast gene YOL031C; least squares fit of YOL031C expression response (log10 expression ratio)) | Hill function parameter log10(u0) (yeast gene YOL031C; least squares fit of YOL031C expression response, methotrexate exposures 3-200 μM)
1 | C[C@H]1c2cccc(O)c2C(=O)C2=C(O)[C@]3(O)C(=O)C(C(N)=O)=C(O)[C@@H](N(C)C)[C@@H]3[C@@H](O)[C@@H]21 [doxycycline] | no significant effect |  |  |  | 
2 | CN(Cc1cnc2nc(N)nc(N)c2n1)c1ccc(C(=O)N[C@@H](CCC(=O)O)C(=O)O)cc1 [methotrexate] |  | 50% | 2 | −0.61 | 1.26
